In US6593342B1, “Pharmaceutical compositions comprising 2-quinolones” (Laboratoire L. Lafon, priority 1998, dated 2003):

How the values were obtained:
colorectal line HT-29 = test: Clonogenic test (soft agar colony growth), HT-29; assay type: cell-based; details: 21 days, control = 100%, mean ± SEM
Text: (§1) 1—Interaction (Stimulation or Inhibition of Proliferation) With the Generation of Clonogenic Cells (Clonogenic Test)
(§2) The test used is that described by Hamburger et al. (Science, 1977; 197, 461-463) and Salmon et al. (New England J. Med., 298, 1321-1327). A cell is considered clonogenic if it has the capacity to proliferate and to give rise to a cell colony. “Human tumor stem cells” are the cells which are the source of the neoplastic cells which constitute a given tumor. These tumor stem cells are responsible for the relapse processes which may be observed after surgical resection of primary tumors and are also responsible for the formation of metastases. In a tumor or a tumor cell line, these clonogenic stem cells differ from the other cells of the tumor or from the neoplastic cell line under consideration in that they conserve their capacity to proliferate in the absence of any solid support.
(§3) In this test, the tumor cells are cultured on a semi-solid support consisting of agar. […] In a tumor cell population, cultured on such a support, it is these clonogenic cells (associated with an unlimited number of cell divisions and whose proliferation is referred to by M. I. Dawson as “anchorage-independent [clonal] growth”) which are capable of growing. The percentage of these clonogenic cells in a tumor or a cell line ranges between 0.1% and 0.001%.
(§4) The influence of the compounds of formulae (I) and (Ia) on the growth of the cell colonies obtained by culturing, for example, the mammalian tumor lines MCF7 and MXT and the colorectal line HT-29 on the semi-liquid culture medium known as “soft agar” was measured. On such a medium, only the clonogenic cells referred to by M. I. Dawson as “anchorage-independent (clonal) cells” survive and grow. The growth of these cells in such a “non-adherent” mode bears witness to their degree of tumorigenicity. The inhibition of the growth of the size of a tumor in which a larger number of clonogenic cells has developed then becomes the evidence of reinforced cytotoxic activity.
(§5) Conversely, this test can also reveal that a compound is capable of inhibiting the generation/proliferation of clonogenic cells, thus making the tumor less able to grow and thus reducing the population of tumor cells.
(§6) The tumor cell lines studied are maintained in culture in 25 cm^2 falcon dishes. They are then trypsinized and the cells are fully dissociated from each other. The percentage of live cells is determined after staining with trypan blue. A cell suspension at a concentration of from 5·10^4 to 15·10^4 cells/ml (depending on the cell type under consideration) is prepared in a 0.3% agar solution. Next, 200 μl of this suspension are inoculated in Petri dishes 35 mm in diameter, in which are placed 3 ml of a base layer consisting of a 0.5% agar solution. The 200 μl of cell suspension are in turn covered with 1.8 ml of an upper layer consisting of a 0.3% agar solution. The dishes are then placed in an incubator at 37° C., 5% CO2 and 70% humidity until the treatment. This treatment is carried out about 1 to 2 hours after the inoculation. The test compounds are prepared at a concentration 100 times greater than the desired concentration and 50 μl of these treating solutions are placed over the upper layer of agar in the corresponding dishes. In the present study, the final concentration of the test products is 10^−5, 10^−7 and 10^−9 M. The dishes are then kept in an incubator for 21 days. On the 21st day the dishes are treated by depositing on the upper layer 100 μl of a 1 mg/ml solution of MTT (3-(4,5-dimethylthiazol-2-yl)-2,5-diphenyltetrazolinium bromide prepared with RPMI 1640 medium) for 3 h at 37° C. After this period, the cell colonies are fixed by adding 2 ml of formalin per dish. After fixing for 24 hours, the formalin is evaporated off and the number of stained cell colonies, thus consisting of metabolically active cells, and whose surface area is greater than 100 μm^2, is determined using an inverted microscope. […]

MXT = test: Clonogenic test (soft agar colony growth), MXT; assay type: cell-based, mouse; details: 21 days, control = 100%, mean ± SEM
Text: as §1, §2, §3, §4, §5, §6

PC-3 = test: MTT test, PC-3; assay type: cell-based; details: Homo sapiens, 10^−5 M, 72 hours, control = 100%, mean ± SEM, read-out: average optical density (MTT), percentage relative to control
Experimental: The influence of the compounds of formulae (I) and (Ia) on non-clonogenic cells was evaluated with the aid of the MTT calorimetric test.
The principle of the MTT test is based on the mitochondrial reduction, by the metabolically active live cells, of the yellow-colored product MTT (3-(4,5-dimethylthiazol-2-yl)-2,5-diphenyltetrazolium bromide) to a blue-colored product, formazan. The amount of formazan thus obtained is directly proportional to the amount of live cells present in the culture well(s). This amount of formazan is measured by spectrophotometry.
The cell lines are maintained as a monolayer culture at 37° C. in stoppered culture dishes containing MEM 25 MM HEPES (Minimum Essential Medium) base medium. This medium is suited to the growth of a range of various mammalian diploid or primary cells. This medium is then supplemented with:
an amount of 5% of FCS (Foetal Calf Serum) decomplemented at 56° C. for 1 hour,
0.6 mg/ml of L-glutamine,
200 μg/ml of streptomycin,
The 12 human cancer cell lines which were used were obtained from the American Type Culture Collection (ATCC, Rockville, Md., USA). These 12 cell lines are:
PC-3 (code ATCC: CRL-1435) which is a prostate cancer.
Experimentally: 100 μl of a cell suspension containing 20 000 to 50 000 (depending on the cell type used) cells/ml of culture medium are inoculated in 96-well flat-bottomed multi-well plates and are incubated at 37° C., under an atmosphere comprising 5% CO2 and 70% humidity. After incubation for 24 hours, the culture medium is replaced with 100 μl of fresh medium containing either the various test compounds at concentrations ranging from 10^−5 to 10^−10 M or the solvent used to dissolve the test products (control condition). After incubation for 72 hours under the above conditions, the culture medium is replaced with 100 μl of a yellowish solution of MTT dissolved at a rate of 1 mg/ml in RPMI 1640. The microplates are reincubated for 3 hours at 37° C. and are then centrifuged for 10 minutes at 400×g. The yellowish solution of MTT is removed and the blue formazan crystals formed in the cell are dissolved in 100 μl of DMSO. The microplates are then shaken for 5 minutes. The intensity of the resulting blue coloration, and thus of the conversion of the yellow product MTT into blue formazan by the cells that are still alive at the end of the experiment, is quantified by spectrophotometry using a Dynatech Immunoassay System machine at wavelengths of 570 nm and 630 nm corresponding, respectively, to the maximum absorption wavelengths of formazan and to the background noise. Software incorporated in the spectrophotometer calculates the average optical density values and the standard deviation (SD) and standard error of mean (SEM) values.
By way of example, the results of the average optical density, expressed as a percentage relative to the average optical density measured under the control condition (set equal to 100%), obtained at a concentration of 10^−5 M on the 12 abovementioned tumor cell lines are given in Table II.

SMILES	average number of clones of clonogenic cells, percentage relative to control (colorectal line HT-29; 10^−5 M) [%]	average number of clones of clonogenic cells, percentage relative to control (colorectal line HT-29; 10^−7 M) [%]	average number of clones of clonogenic cells, percentage relative to control (colorectal line HT-29; 10^−9 M) [%]	average number of clones of clonogenic cells, percentage relative to control (MXT; 10^−5 M) [%]	average number of clones of clonogenic cells, percentage relative to control (MXT; 10^−7 M) [%]	average number of clones of clonogenic cells, percentage relative to control (MXT; 10^−9 M) [%]	viability at 10 µM (PC-3) [%]
COc1ccc(-c2cc3c(OC)cc(OC)cc3[nH]c2=O)cc1 [CRL8246, 5,7-Dimethoxy-3-(4-methoxyphenyl)-1,2-dihydro-2-quinolinone]	70.9 ± 2.8	103.3 ± 3.6	104 ± 2.7	96.7 ± 7.2	97.7 ± 9.3	95.2 ± 6.8	122 ± 1.7
CCN(CC)C(=O)Cn1c(=O)c(-c2ccc(OC)cc2)cc2c(OC)cc(OC)cc21 [CRL8315, N,N-Diethyl-2-[5,7-dimethoxy-3-(4-methoxy-phenyl)-2-oxo-1,2-dihydro-1-quinolinyl]acetamide]	103.5 ± 4.5	111.9 ± 5.4	112.9 ± 2.4	76 ± 2.3	103.9 ± 4.3	102.4 ± 3.9	93.6 ± 3
CCN(CC)C(=O)CCn1c(=O)c(-c2ccc(OC)cc2)cc2c(OC)cc(OC)cc21 [CRL8283, N,N-Diethyl-3-[5,7-dimethoxy-3-(4-methoxy-phenyl)-2-oxo-1,2-dihydro-1-quinolinyl]propanamide]	88.9 ± 0.2	90.9 ± 3.1	106.1 ± 1.4	23.7 ± 1.4	81.2 ± 3	91.4 ± 4	92.4 ± 1.7
COc1ccc(-c2cc3c(OC)cc(OC)cc3n(CCN(C)C)c2=O)cc1 [CRL8316, 1-[2-(Dimethylamino)ethyl]-5,7-dimethoxy-3-(4-methoxyphenyl)-1,2-dihydro-2-quinolinone]	50.6 ± 1.8	80.1 ± 2.9	101.6 ± 3.2	10.8 ± 0.5	89.1 ± 3.7	95.3 ± 3.8	84.8 ± 2.3
COc1ccc(-c2cc3c(OC)cc(OC)cc3n(CCc3nnn[nH]3)c2=O)cc1 [CRL8256, 1-[2-(1H-1,2,3,4-Tetrazol-5-yl)ethyl]-5,7-dimethoxy-3-(4-methoxyphenyl)-1,2-dihydro-2-quinolinone]	97.1 ± 4.3	100.5 ± 4.1	107.5 ± 3.7	53 ± 1.9	103.8 ± 3.9	104.5 ± 4.7	86 ± 2.3
COc1ccc(-c2cc3c(OC)cc(OC)cc3n(CCC#N)c2=O)cc1 [CRL8247, 3-[5,7-Dimethoxy-3-(4-methoxyphenyl)-2-oxo-1,2-dihydro-1-quinolinyl]propanenitrile]	72.7 ± 3.6	98.3 ± 4.9	104.5 ± 2.7	65.7 ± 1.7	89.6 ± 4.9	98.4 ± 2.6	70.5 ± 4.6
